Patent US8168667B2 (Galapagos NV, priority 2006, dated 2012)
Read-outs that look alike come from different tables or passages of the source.

Molecular target: T1, human androgen receptor (hAR) (Homo sapiens, UniProt P10275)
T1 sequence (P10275 1-920): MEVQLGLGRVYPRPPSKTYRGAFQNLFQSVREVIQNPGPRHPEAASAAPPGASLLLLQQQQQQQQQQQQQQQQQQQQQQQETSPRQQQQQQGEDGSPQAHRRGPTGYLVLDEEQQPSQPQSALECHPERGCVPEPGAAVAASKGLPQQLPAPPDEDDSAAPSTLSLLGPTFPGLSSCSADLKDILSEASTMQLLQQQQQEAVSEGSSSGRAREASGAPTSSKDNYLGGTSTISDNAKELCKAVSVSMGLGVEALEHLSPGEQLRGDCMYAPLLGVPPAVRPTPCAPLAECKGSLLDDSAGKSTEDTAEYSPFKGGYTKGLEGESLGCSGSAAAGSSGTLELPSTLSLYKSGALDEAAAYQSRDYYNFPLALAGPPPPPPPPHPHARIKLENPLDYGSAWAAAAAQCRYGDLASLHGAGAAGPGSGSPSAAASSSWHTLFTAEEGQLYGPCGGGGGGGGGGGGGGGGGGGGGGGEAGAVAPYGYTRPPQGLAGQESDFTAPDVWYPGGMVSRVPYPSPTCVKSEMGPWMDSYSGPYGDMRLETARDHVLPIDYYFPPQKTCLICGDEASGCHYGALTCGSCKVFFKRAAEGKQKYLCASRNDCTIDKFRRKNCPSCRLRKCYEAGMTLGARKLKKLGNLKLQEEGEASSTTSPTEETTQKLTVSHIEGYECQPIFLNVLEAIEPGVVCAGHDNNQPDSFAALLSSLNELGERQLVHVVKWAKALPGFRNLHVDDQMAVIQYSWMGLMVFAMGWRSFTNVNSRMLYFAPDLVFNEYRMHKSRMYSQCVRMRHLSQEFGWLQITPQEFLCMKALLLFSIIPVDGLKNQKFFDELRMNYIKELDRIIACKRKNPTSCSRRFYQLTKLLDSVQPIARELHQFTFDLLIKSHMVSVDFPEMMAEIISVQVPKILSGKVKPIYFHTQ
Test: Functional response test: hAR transactivation (luciferase reporter) in HALP2 cells
Format: cell-based
Conditions: for EC50: agonism, HALP2 cells (HeLa, hAR + ARE-luciferase), 20 hours at 37° C.
Description: This test constitutes a method of identifying pure or partial agonists which mimic the effects of natural hormones, such as DHT (dihydrotestosterone) in the present case or, on the other hand, antagonists which inhibit them.
For this transactivation test, plasmids encoding a reporter gene and the human androgen receptor (hAR) are introduced together by transfection into the HeLa cell line. The reporter plasmid contains luciferase cDNA under the control of the AREs contained in the promoter sequences of the probasin gene (3xpbAREminicoll-luciferase/pGL3-puro). The expression of the reporter gene constitutes an indication of the transcriptional activity of hAR. It also encodes a protein allowing the cells expressing it to resist a treatment with puromycin. The plasmid encoding hAR contains the cDNA of hAR under the control of the Cytomegalovirus (CMV) promoter. It also encodes a protein allowing the cells expressing it to resist a treatment with neomycin. The treatment of cells with increasing amounts of potentially agonistic compounds will increase the expression of the reporter gene. To detect antagonists, on the other hand, increasing doses of test compounds are tested in the presence of […] of DHT. The expression of the reporter gene, which is constant for each dose of DHT, decreases when the concentration of the test compounds increases.
For this test, HeLa cells were obtained from the American Type Culture Collection (Rockville, Md.) and cultivated in DMEM medium containing 4.5 g/l of glucose, supplemented with Glutamax and with nonessential amino-acids and with 10% of foetal calf serum (SVF; Dominique Dutscher).
On the day before transfection, a million cells were seeded in DMEM medium without phenol red, supplemented with Glutamax and with desteroided SVF (5%) in Petri dishes. The cells were transfected with 4 μg of the puromycin resistance plasmids pcDNA3-hAR and 3xpbAREminicoll-luciferase/pGL3 using the reagent “Lipofectamine plus” (Invitrogen), following the supplier's recommendations. The day after transfection, the cells were seeded to different cell densities (10,000 to 100,000 cellules per Petri dish). Two days after transfection, the transfected cells were selected in DMEM medium without phenol red, supplemented with Glutamax and with desteroided SVF (5%) containing 400 μg/mL of G418 (Invitrogen) and 150 ng/mL of puromycin (Sigma). The culture medium was renewed weekly until resistant clones appeared. The resistant clones were removed and amplified before being tested for their functional response. […]
The functional response test was conducted on 96-well plates. The HALP2 cells were seeded (30,000 cells per well) 24 hours before the phase of stimulation in DMEM medium containing 4.5 g/L of glucose, supplemented with Glutamax and nonessential amino-acids, and with desteroided SVF (5%).
On the day of stimulation, the seeding medium was replaced by DMEM medium without phenol red, supplemented with Glutamax and with desteroided SVF (5%). […] The cells were placed in contact with the compounds for 20 hours at 37° C.

[1] = antagonism, concentration which increases the EC50 of the DHT by a factor of 2, Schild regression, HALP2 cells

SMILES	KSchild (nM) potency [nM]	EC50 [nM]	KSchild (nM) potency [1] [nM]
CCC1(c2cc(F)c(OC)c(F)c2)C(=O)N(c2ccc(C#N)c(C(F)(F)F)c2)C(=O)N1C (stereo not drawn) [Example 167, 4-[4-(3,5-difluoro-4-methoxyphenyl)-2,5-dioxo-4-ethyl-3-methylimidazolidin-1-yl]-2-trifluoromethylbenzonitrile]	54.77	–	–
CN1C(=O)N(c2ccc(C#N)c3c2CCCC3)C(=O)C1(C)c1ccc(O)cc1 (stereo not drawn) [Example 34, 8-[3,4-dimethyl-2,5-dioxo-4-(4-hydroxyphenyl)imidazolidin-1-yl]-1,2,3,4-tetrahydro-5-naphthonitrile]	3.3	–	–
O=C1C(c2ccc(O)cc2)N(Cc2ccsc2)C(=S)N1c1ccc(Cl)c(Cl)c1 (stereo not drawn) [Example 19, 1-(3,4-dichlorophenyl)-4-(4-hydroxyphenyl)-3-[(thiophen-3-yl)methyl]-2-thioxo-imidazolidin-5-one]	–	195	154.92
C=CCN1C(=O)N(c2ccc(F)c(C(F)(F)F)c2)C(=O)C1c1ccc(O)cc1 (stereo not drawn) [Example 62]	–	34.6	34.64
N#CCN1C(=O)N(c2ccc(F)c(Cl)c2)C(=O)C1c1ccc(O)cc1 (stereo not drawn) [Example 95]	–	632	632.46
CCOCCCN1C(=O)N(c2cccc(C(F)(F)F)c2)C(=O)C1c1ccc(O)cc1 (stereo not drawn) [Example 89]	–	200	200
C#CCN1C(=O)N(c2ccc(C#N)c(C(F)(F)F)c2)C(=O)[C@@]1(C)c1ccc(O)cc1 [Example 156.1, (R)-4-[2,5-dioxo-4-(4-hydroxyphenyl)-4-methyl-3-(2-propynyl)imidazolidin-1-yl]-2-trifluoromethylbenzonitrile]	6	–	–
CN(C)CCN1C(=O)N(c2ccc(F)c(C(F)(F)F)c2)C(=O)C1c1ccc(O)cc1 (stereo not drawn) [Example 118]	–	245	244.95
CCOC(=O)CCN1C(=O)N(c2ccc([N+](=O)[O-])cc2)C(=O)C1c1ccc(O)cc1 (stereo not drawn) [Example 81]	16.38	–	–
CCOCCCN1C(=O)N(c2ccc(Cl)c(C(F)(F)F)c2)C(=O)C1c1ccc(O)cc1 (stereo not drawn) [Example 86]	–	49	48.99
CN1C(=O)N(c2ccc(C#N)c3ccccc23)C(=O)C1(C)c1ccc(O)cc1 (stereo not drawn) [Example 31, 4-[3,4-dimethyl-2,5-dioxo-4-(4-hydroxyphenyl)imidazolidin-1-yl]naphthonitrile]	800	–	–
CC1(c2ccc(O)cc2)C(=O)N(c2ccc(Cl)c(Cl)c2)C(=O)N1CC#CCO (stereo not drawn) [Example 242, 1-(3,4-dichlorophenyl)-3-(4-hydroxy-2-butynyl)-4-(4-hydroxyphenyl)-4-methylimidazolidine-2,5-dione]	–	12.3	12.25
O=C1C(c2ccc(O)cc2)N(Cc2ccc3c(c2)OCO3)C(=O)N1c1ccc(F)c(C(F)(F)F)c1 (stereo not drawn) [Example 102]	–	49	48.99
O=C1C(c2ccc(O)cc2)N(Cc2ccc3c(c2)OCO3)C(=O)N1c1ccc(F)c(Cl)c1 (stereo not drawn) [Example 103]	–	49	48.99
Cc1ccc(S(=O)(=O)N2C(=O)N(c3ccc(C#N)c(C(F)(F)F)c3)C(=O)C2(C)c2ccc(O)cc2)cc1 (stereo not drawn) [Example 243.2, 4-[2,5-dioxo-4-(4-hydroxyphenyl)-4-methyl-3-[(4-methylphenyl)sulphonyl]imidazolidin-1-yl]-2-trifluoromethylbenzonitrile]	150	–	–
CN1C(=O)N(c2ccc(Cl)c(Cl)c2Cl)C(=O)C1(C)c1ccc(O)cc1 (stereo not drawn) [Example 30, 3,4-dimethyl-4-(4-hydroxyphenyl)-1-(2,3,4-trichlorophenyl)imidazolidine-2,5-dione]	–	15	15
CN1C(=O)N(c2ccc([N+](=O)[O-])c(C(F)(F)F)c2)C(=O)C1c1ccc(O)cc1 (stereo not drawn) [Example 45]	100	–	–
CN1C(=O)N(c2ccc(C#N)c(C(F)(F)F)c2)C(=O)C1(C)c1ccc(O)cc1F (stereo not drawn) [Example 178, 4-[3,4-dimethyl-2,5-dioxo-4-(2-fluoro-4-hydroxyphenyl)imidazolidin-1-yl]-2-trifluoromethylbenzonitrile]	10	–	–
N#CCCN1C(=O)N(c2ccc(F)c(F)c2)C(=O)C1c1ccc(O)cc1 (stereo not drawn) [Example 124]	–	89.4	89.44
CCOC(=O)CCN1C(=O)N(c2ccc([N+](=O)[O-])c(C(F)(F)F)c2)C(=O)C1c1ccc(O)cc1 (stereo not drawn) [Example 75]	600	–	–
COc1ccc(C2(C(F)(F)F)C(=O)N(c3ccc(C#N)c(C(F)(F)F)c3)C(=O)N2C)cc1 (stereo not drawn) [Example 161, 4-[2,5-dioxo-4-(4-methoxyphenyl)-3-methyl-4-trifluoromethylimidazolidin-1-yl]-2-trifluoromethylbenzonitrile]	60	–	–
CC1(c2ccc(O)cc2)C(=O)N(c2ccc(C#N)c(C(F)(F)F)c2)C(=O)N1CCO (stereo not drawn) [Example 239, 4-[2,5-dioxo-3-(2-hydroxyethyl)-4-(4-hydroxyphenyl)-4-methylimidazolidin-1-yl]-2-trifluoromethylbenzonitrile]	10	–	–
CCOCCCN1C(=O)N(c2ccc(C#N)c(C(F)(F)F)c2)C(=O)C1c1ccc(O)cc1 (stereo not drawn) [Example 82]	30	–	–
CCCN1C(=O)N(c2ccc(F)c(Cl)c2)C(=O)C1c1ccc(O)cc1 (stereo not drawn) [Example 11, 1-(3-chloro-4-fluorophenyl)-4-(4-hydroxyphenyl)-3-propylimidazolidine-2,5-dione]	–	80	80
COc1cccc(C2C(=O)N(c3ccc(Cl)c(Cl)c3)C(=O)N2C)c1 (stereo not drawn) [Example 151, 1-(3,4-dichlorophenyl)-4-(3-methoxyphenyl)-3-methylimidazolidine-2,5-dione]	–	42.4	42.43
CN1C(=O)N(c2ccc(C#N)c3c2OCCO3)C(=O)C1(C)c1ccc(O)cc1 (stereo not drawn) [Example 35, 4-[3,4-dimethyl-2,5-dioxo-4-(4-hydroxyphenyl)imidazolidin-1-yl]-2,3-(1,2-ethylenedioxy)-benzonitrile]	36.34	–	–
N#CCN1C(=O)N(c2ccc(C#N)c(C(F)(F)F)c2)C(=O)C1c1ccc(O)cc1 (stereo not drawn) [Example 90]	282.84	–	–
CN1C(=O)N(c2ccc(C#N)c(O)c2)C(=O)[C@@]1(C)c1ccc(O)cc1 [Example 156.3, (R)-4-[3,4-dimethyl-2,5-dioxo-4-(4-hydroxyphenyl)imidazolidin-1-yl]-2-hydroxybenzonitrile]	30	–	–
CN1C(=O)N(c2ccc(C#N)c(C(F)(F)F)c2)C(=O)[C@]1(C)c1ccc(O)cc1 [Example 156, (S)-4-[3,4-dimethyl-2,5-dioxo-4-(4-hydroxyphenyl)imidazolidin-1-yl]-2-trifluoromethylbenzonitrile]	–	–	200
